Test results reported in publication PMC11513923, “Discovery of ZLC491 as a Potent, Selective, and Orally Bioavailable CDK12/13 PROTAC Degrader” (Journal of Medicinal Chemistry, 2024).

Tests used:
[1] = Tolerability and body weight in MDA-MB-231 xenografted mice; format: in vivo; settings: 100 and 200 mg/kg orally, 5 days
Method: (§1) We further performed pharmacodynamic studies of ZLC491 in an MDA-MB-231 xenografted mouse model. ZLC491 was orally administrated at two doses of 100 and 200 mg/kg, respectively, for 5 consecutive days (Figure 7A). Tumor tissues were harvested on day 5 and subjected to Western blot analysis. […] Additionally, we conducted further histological analysis on the tumors following ZLC491 treatment.
(§2) Figure 7 ZLC491 depleted CDK12 and CDK13 proteins in vivo. (A) Study design of pharmacodynamics assessment on target engagement of ZLC491 in the MDA-MB-231 xenograft model; (B) immunoblotting of CDK12, CDK13, and α-tubulin in tissue lysate of MDA-MB-231 xenografts model after ZLC491 treatment; (C) protein levels were quantified using ImageJ and normalized to corresponding α-tubulin, then plotted using GraphPad Prism 8.0; (D) immunohistochemistry (IHC) analysis on the tumors by H&E staining and TUNEL assays; (E) TUNEL histology scores were analyzed and plotted by GraphPad Prism 8.0; (F) body weight change during the treatment.
(§3) The pharmacodynamics experiments were performed under an approved animal protocol by the Institutional Animal Care & Use Committee of the University of Michigan. Six- to eight-week-old CB17SCID female (Charles River Laboratory) mice were in a regular SPF housing room prior to cell injection. […]

[2] = tested on: MDA-MB-231 xenograft tumors; experiment: Histology of tumors (H&E staining, TUNEL IHC) in MDA-MB-231 xenograft model; format: in vivo, mouse; settings: 100 and 200 mg/kg orally, 5 days; particularly at 200 mg/kg
Method: as §1, §2
H&E staining of formalin-fixed paraffin embedded (FFPE) tissue sections was performed using Leica Autostainer XL as per manufacturer’s protocol. […] Cells which were intensely stained for DAB pigment were considered to be apoptotic and they were quantified as numbers per 10 high power field (hpf, 400× magnification).

CDK12 and CDK13 = experiment: Pharmacodynamic study in MDA-MB-231 xenografted mouse model, Western blot of tumor tissues; format: in vivo; settings: 100 and 200 mg/kg orally, 5 consecutive days, vs vehicle, MDA-MB-231 xenograft mice
Method: as §1, §2, §3

CDK12 = CDK12 (Homo sapiens, UniProt Q9NYV4); experiment: TMT-labeled quantitative proteomics in MDA-MB-231 cells; format: cell-based; set-up: endogenous in cells; host or cells: MDA-MB-231; settings: 8 h
Method: The global proteomic selectivity of ZLC491 was investigated by using the tandem mass tag (TMT) labeled mass-spectrometry. […] CDK13 was not detected in either degrader treatment groups or DMSO control groups, likely due to its insufficient cellular expression for mass spectrometry detection.
Figure 5 ZLC491 degraded CDK12/13 with high selectivity. (A) Global proteomic analysis of ZLC491 in MDA-MB-231 cells after 8 h treatment of DMSO or 2 μM ZLC491; (B) mass-spec quantification of CDKs changes; (C) immunoblotting of target protein degradation in samples for proteomic analysis.
MDA-MB-231 cells were seeded at 8 × 10^5 cells in 6 cm dishes 24 h before treating with 2 μM ZLC491 or DMSO in quadruplicate or triplicate for 8 h. Cell lysates were prepared by washing cells twice with cold PBS and adding 180 μL lysis buffer (10 mM HEPES, pH 7.0, 1% (w/v) SDS, 2 mM MgCl·6H2O supplemented with 0.1% BeyoZonase (Beyotime)) per dish. Samples were quantified using a micro-BCA protein assay kit (Thermo Fisher Scientific) and 600 μg of each sample was processed and digested using the filter aided sample preparation (FASP) method followed by alkylation with iodoacetamide and digestion with trypsin. The samples were then desalted using Oasis HLB C18 SPE cartridge column (Waters, WAT094225). The peptides were lyophilized and reconstituted, then 25 μg peptides of each sample were labeled with TMT 11-plex Isobaric Label Reagent Set (Thermo Fisher Scientific) as the manufacturer’s instructions. After labeling, the peptides from the 11 samples were pooled together. […]
The fractions were analyzed sequentially on an Orbitrap Fusion Lumos Mass Spectrometer (Thermo Scientific) coupled to a NanoLC-1200 UHPLC system (Thermo Scientific) with C18 capillary column. […] MS3 precursor were fragmented by HCD and analyzed with Orbitrap at NCE 65, AGC 1E5, resolution 60000.
The raw MS data files for all 11 fractions were searched against the Uniprot-Human-Canonical database by Proteome Discoverer 2.0 for protein identification and TMT reporter ion quantitation. […]

Chain of CDK12 (Q9NYV4 whole entry): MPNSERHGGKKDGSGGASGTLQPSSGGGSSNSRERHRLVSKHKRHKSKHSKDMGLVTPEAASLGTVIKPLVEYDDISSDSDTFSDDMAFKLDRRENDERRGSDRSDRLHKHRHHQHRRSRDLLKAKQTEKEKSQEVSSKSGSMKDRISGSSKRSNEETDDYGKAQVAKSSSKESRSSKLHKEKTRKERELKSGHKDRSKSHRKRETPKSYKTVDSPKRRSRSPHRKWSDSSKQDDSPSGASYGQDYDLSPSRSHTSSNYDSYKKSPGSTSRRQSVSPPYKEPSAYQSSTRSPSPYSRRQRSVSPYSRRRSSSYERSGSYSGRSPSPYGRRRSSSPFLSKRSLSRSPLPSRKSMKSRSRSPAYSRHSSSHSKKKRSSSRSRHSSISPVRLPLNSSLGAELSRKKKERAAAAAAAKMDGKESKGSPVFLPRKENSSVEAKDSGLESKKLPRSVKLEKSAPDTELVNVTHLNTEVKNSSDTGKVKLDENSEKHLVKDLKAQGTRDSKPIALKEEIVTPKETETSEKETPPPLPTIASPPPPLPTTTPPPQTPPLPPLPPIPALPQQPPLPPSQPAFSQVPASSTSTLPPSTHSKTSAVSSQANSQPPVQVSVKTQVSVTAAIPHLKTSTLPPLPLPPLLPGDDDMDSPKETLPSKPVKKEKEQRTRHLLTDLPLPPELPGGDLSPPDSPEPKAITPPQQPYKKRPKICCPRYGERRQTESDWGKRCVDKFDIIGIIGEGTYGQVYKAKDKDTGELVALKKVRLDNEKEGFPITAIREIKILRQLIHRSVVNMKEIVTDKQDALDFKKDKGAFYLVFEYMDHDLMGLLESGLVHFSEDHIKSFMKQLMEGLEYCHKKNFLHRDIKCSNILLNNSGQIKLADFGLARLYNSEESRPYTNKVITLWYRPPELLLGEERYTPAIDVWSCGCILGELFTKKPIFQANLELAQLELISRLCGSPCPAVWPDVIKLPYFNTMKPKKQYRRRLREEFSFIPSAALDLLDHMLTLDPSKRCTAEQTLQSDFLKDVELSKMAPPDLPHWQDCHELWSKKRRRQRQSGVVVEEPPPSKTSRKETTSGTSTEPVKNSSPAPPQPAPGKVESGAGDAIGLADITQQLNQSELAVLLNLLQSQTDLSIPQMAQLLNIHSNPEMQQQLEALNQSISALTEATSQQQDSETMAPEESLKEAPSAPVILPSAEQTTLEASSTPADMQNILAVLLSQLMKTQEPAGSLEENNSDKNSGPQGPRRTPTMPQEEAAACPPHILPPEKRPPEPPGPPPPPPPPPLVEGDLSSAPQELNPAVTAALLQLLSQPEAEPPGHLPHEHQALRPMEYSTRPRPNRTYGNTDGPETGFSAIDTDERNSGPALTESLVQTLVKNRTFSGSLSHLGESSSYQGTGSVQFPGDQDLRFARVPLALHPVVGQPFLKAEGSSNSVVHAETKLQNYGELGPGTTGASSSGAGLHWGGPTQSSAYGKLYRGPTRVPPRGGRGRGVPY
Chain of CDK12 (O75909 whole entry partner): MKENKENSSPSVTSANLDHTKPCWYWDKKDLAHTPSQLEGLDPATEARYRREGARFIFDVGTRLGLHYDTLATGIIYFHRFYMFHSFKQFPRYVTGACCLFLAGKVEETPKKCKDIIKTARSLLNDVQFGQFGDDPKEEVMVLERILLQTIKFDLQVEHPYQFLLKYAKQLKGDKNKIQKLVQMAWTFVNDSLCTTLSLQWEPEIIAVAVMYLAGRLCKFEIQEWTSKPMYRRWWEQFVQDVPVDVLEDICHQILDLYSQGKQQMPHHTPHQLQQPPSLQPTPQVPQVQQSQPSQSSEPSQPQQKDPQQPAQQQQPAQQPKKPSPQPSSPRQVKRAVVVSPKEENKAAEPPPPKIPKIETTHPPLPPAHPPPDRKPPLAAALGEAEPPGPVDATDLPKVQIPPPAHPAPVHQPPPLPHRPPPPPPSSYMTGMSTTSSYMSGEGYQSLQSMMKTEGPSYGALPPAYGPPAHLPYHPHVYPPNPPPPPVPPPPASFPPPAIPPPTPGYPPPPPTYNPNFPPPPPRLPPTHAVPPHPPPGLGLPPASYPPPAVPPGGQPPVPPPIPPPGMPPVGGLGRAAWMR

In the case of N#Cc1ccc(N[C@H]2CC[C@H](N(C(=O)NCc3ccccc3)c3ccc(N4CCN(C5CCN(c6cc7c(cc6F)C(=O)N(C6CCC(=O)NC6=O)C7=O)CC5)CC4)cc3)CC2)nc1 (stereo partly shown) [ZLC491, 3-Benzyl-1-((1r,4r)-4-((5-cyanopyridin-2-yl)amino)cyclohexyl)-1-(4-(4-(1-(2-(2,6-dioxopiperidin-3-yl)-6-fluoro-1,3-dioxoisoindolin-5-yl)piperidin-4-yl)piperazin-1-yl)phenyl)urea], the “body weight change during the treatment” value [1] is reported as “absence of body weight loss”, the tolerability [1] is reported as “well tolerated” and the “apoptosis in tumors (H&E staining, TUNEL IHC)” value [2] is reported as “marked apoptosis and increased TUNEL signaling”. The “CDK12 and CDK13 proteins in tumor tissues” value (CDK12 and CDK13) was “significantly depleted”, the “FC_4-91 (CDK12)” value (CDK12; 2 μM ZLC491 vs DMSO) was 0.249 and the “CDK12 level in global proteomics” value (CDK12; 2 μM) was “significantly decreased”. The “selectivity among CDKs in global proteomics” value (CDK12; 2 μM) was “selective for CDK12 over other CDKs”.
